Assay results from article PMC11292009, “Mapping protein binding sites by photoreactive fragment pharmacophores” (Communications Chemistry, 2024).

How the values were obtained:
Format in all cases: binding
[1] = system: lysozyme (Lyo); test: Intact protein MS photoaffinity labeling screen, lysozyme; conditions: intact protein MS after 10 min irradiation
How it was run: (§1)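 Read-out: intact protein MS taken straight from the plate, with successful labeling seen as added mass on the protein and expressed as labeling %. Beforehand, every fragment sat alone in a well with the protein for 15 min so non-covalent interactions could form.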

[2] = system: T1, BRD4-BD1; test: Intact MS photoaffinity labeling screen, BRD4-BD1 (302 nm, LCMS-TOF); conditions: for MS labeling percentage, BRD4: BRD4-BD1, 302 nm 10 min
T1 construct: screened the PhP library against the first bromodomain of BRD4 (BRD4-BD1); purchased GSK/GenScript
How it was run: (§2)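 Labeling detected as mass additions in deconvoluted intact-protein LCMS-TOF spectra. Protein at 1 μM in PBS was first mixed with one fragment per well on ice for 15 min, followed by 10 min UV exposure at 302 nm.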

[3] = system: carbonic anhydrase II (CA); test: Intact protein MS photoaffinity labeling screen, carbonic anhydrase; conditions: intact protein MS after 10 min irradiation
How it was run: as §1

[4] = system: T2, STAT5B-NTD; test: Intact MS labeling screen, STAT5B-NTD conjugated with photocatalyst Ir-G2-PEG3-COOH (450 nm); conditions: 450 nm 10 min;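 further: 0.14 µL of 100 mM DMSO fragment stock added to the conjugate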
T2 construct: His-SUMO (N, cleaved yes); made in house; host or cells: E. coli BL21 RILP
How it was run: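 Ir-G2-PEG3-COOH photocatalyst (10 eq) activated 30 min with EDC/NHS/BOP, then conjugated to STAT5B-NTD (7 µM) overnight at RT or 1 h at 37 °C in dark. PhP added, 1 h dark, then 450 nm irradiation 10 min at 4 °C; labeling read by intact LC-MS, positive ion mode, m/z 100–2000.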

[5] = system: myoglobin (Myo); test: Intact protein MS photoaffinity labeling screen, myoglobin; conditions: intact protein MS after 10 min irradiation
How it was run: as §1

[6] = system: T2, STAT5B-NTD; test: Intact MS photoaffinity labeling screen, STAT5B-NTD (365 nm, UHPLC-MS); conditions: for MS labeling percentage, STAT5B: STAT5B-NTD, 365 nm 10 min, no photocatalyst;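 on MS labeling percentage, STAT5B: 0.17 µL of 100 mM DMSO fragment stock added to the protein sample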
How it was run: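 UV irradiation at 365 nm for 10 min at 4 °C. Labeling read by intact-protein UHPLC-MS, positive ion mode, m/z 100–2000.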

[7] = system: T3, KRas^G12D; test: Intact MS photoaffinity labeling screen, KRas G12D (302 nm, LCMS-TOF); conditions: for MS labeling percentage, KRas: KRas G12D, 302 nm 10 min
T3 construct: purchased GSK/GenScript
How it was run: as §2

[8] = hit flag 1/0, sheet PhP, photoaffinity labeling screen
[9] = sheet PhP, experimental hit status flag given as 0 or 1

| SMILES | MS labeling percentage, Lyo [1] | MS labeling percentage, BRD4 [2] | BRD4-BD1 (experimental hit status) [2, 8] | MS labeling percentage, CA [3] | MS labeling percentage, STAT5B+photocat [4] | MS labeling percentage, Myo [5] | MS labeling percentage, STAT5B [6] | STAT5B-NTD (experimental hit status) [6, 8] | MS labeling percentage, KRas [7] | KRAS-G12D (experimental hit status) [7, 8] | BRD4-BD1 (experimental hit status) [2, 9] | STAT5B-NTD (experimental hit status) [6, 9] | KRAS-G12D (experimental hit status) [7, 9] |
| --- | --- | --- | --- | --- | --- | --- | --- | --- | --- | --- | --- | --- | --- |
| CC1(CCC(=O)NCCSCc2ccccc2)N=N1 [PhP051, N1=NC1(C)CCC(=O)NCCSCc2ccccc2] | 0% | 0.2% | 0 | 1% | 1% | 0.1% | 0% | 0 | 0% | 0 |  |  |  |
| CC1(CCC(=O)NCc2ccc(-c3cncnc3)cc2)N=N1 [PhP052, N1=NC1(C)CCC(=O)NCc2ccc(cc2)-c3cncnc3] | 0% | 1.5% | 0 | 1.2% | 11.4% | 1.3% | 1% | 0 | 1.3% | 0 |  |  |  |
| CC1(CCC(=O)Nc2ccc(N3CCCCC3)cc2C(N)=O)N=N1 [PhP054, N1=NC1(C)CCC(=O)Nc2ccc(cc2C(=O)N)N3CCCCC3] | 0% | 0.6% | 0 | 0% | 9.8% | 0% | 2.9% | 0 | 0% | 0 |  |  |  |
| CN(C)Cc1nc2ccc(NC(=O)CCC3(C)N=N3)cc2o1 [PhP055, CN(C)Cc(n1)oc(c12)cc(cc2)NC(=O)CCC3(C)N=N3] | 0% | 0.7% | 0 | 0% | 0.8% | 0% | 0% | 0 | 0.3% | 0 |  |  |  |
| CC1(CCC(=O)NCCCN2CCN(C(=O)OC(C)(C)C)CC2)N=N1 [PhP056, CC(C)(C)OC(=O)N1CCN(CC1)CCCNC(=O)CCC2(C)N=N2] | 0% | 0.2% | 0 | 0.3% | 1.2% | 0% | 0% | 0 | 0% | 0 |  |  |  |
| CC1(CCC(=O)NCc2c(O)ccc3ccccc23)N=N1 [PhP057, N1=NC1(C)CCC(=O)NCc(c(O)cc2)c(c23)cccc3] | 2.2% | 1.6% | 0 | 0.4% | 3.4% | 0.7% | 0% | 0 | 1.1% | 0 |  |  |  |
| CC1(CCC(=O)N[C@@H](Cc2ccc(O)cc2)C(N)=O)N=N1 [PhP058, N1=NC1(C)CCC(=O)N[C@H](C(=O)N)Cc2ccc(O)cc2] | 1.2% | 0.4% |  | 0% | 0.5% | 0.1% | 1% |  | 0% |  | 0 | 0 | 0 |
| CC1(CCC(=O)NCc2cccc(C(N)=O)c2)N=N1 [PhP059, N1=NC1(C)CCC(=O)NCc2cccc(c2)C(=O)N] | 0% | 0.7% |  | 0.6% | 0.3% | 0.7% | 1% |  | 0.8% |  | 0 | 0 | 0 |
| Cc1n[nH]c(C)c1CCNC(=O)CCC1(C)N=N1 [PhP061, Cc1n[nH]c(C)c1CCNC(=O)CCC2(C)N=N2] | 0% | 0.2% |  | 0.2% | 0% | 0.2% | 1% |  | 0.1% |  | 0 | 0 | 0 |
| COc1ccc(OC)c(C(C)NC(=O)CCC2(C)N=N2)c1 (centres unmarked) [PhP062, COc1ccc(OC)c(c1)C(C)NC(=O)CCC2(C)N=N2] | 1% | 7.9% |  | 2.3% | 1.9% | 1.1% | 2% |  | 63.2% |  | 0 | 0 | 0 |
| Cn1cnnc1CCNC(=O)CCC1(C)N=N1 [PhP063, Cn1cnnc1CCNC(=O)CCC2(C)N=N2] | 0% | 49.7% |  | 0.3% | 0.4% | 0.3% | 0% |  | 0.8% |  | 0 | 0 | 0 |
| CC1(CCC(=O)NC(CO)Cc2c[nH]c3ccccc23)N=N1 (centres unmarked) [PhP064, N1=NC1(C)CCC(=O)NC(CO)Cc(c[nH]2)c(c23)cccc3] | 0.7% | 1.1% |  | 0.5% | 1.9% | 0.3% | 2.9% |  | 3.1% |  | 0 | 0 | 0 |
| CC1(CCC(=O)NCCCc2nc[nH]n2)N=N1 [PhP066, N1=NC1(C)CCC(=O)NCCCc2nc[nH]n2] | 0% | 0.3% |  | 0.3% | 0% | 0.3% | 0% |  | 0.2% |  | 0 | 0 | 0 |
| Cc1cc2ncn(CC(O)CNC(=O)CCC3(C)N=N3)c2cc1C (centres unmarked) [PhP067, Cc(c1)c(C)cc(c12)n(cn2)CC(O)CNC(=O)CCC3(C)N=N3] | 0% | 0.8% |  | 0.2% | 0.3% | 0.5% | 2% |  | 0.6% |  | 0 | 0 | 0 |
